Experimental data as given in patent publication US10450573B2, “Compositions and methods for regulation of gene expression with, and detection of, folinic acid and folates” (The Board of Trustees of the Leland Stanford Junior …, priority 2014, dated 2019).

B1: L2b8: parent theophylline-responsive ribozyme switch, SEQ ID NO: 43 (nucleic acid)
chain: AAACAAACAAAGCTGTCACCGGATGTGCTTTCCGGTCTGATGAGTCCGTTGTCCATACCAGCATCGTCTTGATGCCCTTGGCAGGGACGGGACGGAGGACGAAACAGCAAAAAGAAAAATAAAAA
modifications: listed as DNA, chemistry not fully specified
B2: tFA8-18: truncated (6S)-FA specific RNA aptamer, SEQ ID NO: 23 (nucleic acid)
chain: CUCGUCAAUGCAUAUGUAACGUUAACGGCGCUACCUGUACAAUGCACGUUCCGAGCGCCCGGAGACGAG
modifications: unmodified RNA

Key:
[1] = cited from earlier work; for concentration that can accumulate in human blood plasma: intravenous infusion
[2] = Surface plasmon resonance aptamer binding assay, (6R)-folinic acid; settings: for ka, (6R)-Folinic Acid / kd, (6R)-Folinic Acid / Kd: SPR, 25° C., selection buffer pH 7.4, 5 mM MgCl2; for ka, (6R)-Folinic Acid / kd, (6R)-Folinic Acid: 1:1 binding model; for Selectivity: between (6R)- and (6S)-folinic acid diastereomers
Experimental: (§1) Surface plasmon resonance characterization of aptamer binding properties. Nucleic acid aptamer preparation. RNA aptamers were prepared by PCR amplification of DNA template sequences (Table 4, Integrated DNA Technologies, Coralville, Iowa) using forward and reverse primers Biacore-fwd and Biacore-rev, respectively, followed by transcription of the PCR product using the MEGAshortscript T7 transcription kit (Life Technologies) and purification of the transcription product using the RNA Clean & Concentrator kit (Zymo Research, Irvine, Calif.), according to the manufacturers' instructions. Aptamers were resuspended in selection buffer, denatured at 65° C. for 5 min, and cooled to room temperature directly before use.
(§2) Sensor chip surface generation. Experiments were performed on a Biacore X100 instrument (GE Healthcare) at 25° C. A CM5 sensor chip (GE Healthcare) was equilibrated with HBS-N buffer. The DNA linker strand (5′-AmMC6-[…]) (Integrated DNA Technologies) (SEQ ID NO:133), with an amino modified 6-carbon linker on the 5′ end, was immobilized to the chip surface. The carboxymethylated dextran surface of the CM5 chip was activated for 7 min at a flow rate of 10 μL/min using a 1:1 volume ratio of 0.4 M 1-ethyl-3-(3-dimethylaminopropyl) carbodiimide (GE Healthcare) and 0.1 M N-hydroxysuccinimide (GE Healthcare). A molar ratio of 1:30 of DNA strand to hexadecyltrimethylammonium bromide (Sigma-Aldrich, St. Louis, Mo.) was diluted in 10 mM HEPES buffer (Sigma-Aldrich) to a final concentration of 20 μM and 0.6 mM, respectively, and injected over the activated surface for 10 min at a flow rate of 5 μL/min. Excess activated groups were blocked by an injection of 1 M ethanolamine (GE Healthcare), pH 8.5, for 7 min at a flow rate of 10 μL/min. The immobilization reaction was performed sequentially on both flow cells (FC1, FC2) and yielded approximately 4,000 RU of the DNA strand.
(§3) Aptamer binding assay. The Biacore X100 instrument was primed three times with running buffer prior to all binding assays. For each assay, three startup cycles were performed to stabilize the sensorgram baseline. For each startup cycle, the aptamer (˜40-70 ng/μL, ˜3 μM) was captured onto the sample flow cell (FC2) for 40 s at a flow rate of 5 μL/min. 25 mM NaOH (GE Healthcare) was injected for 30 s at a flow rate of 30 μL/min over both flow cells to regenerate the sensor surface. A dilution series of (6R)- or (6S)-folinic acid (Schircks Laboratories, Jona, Switzerland) was prepared in selection buffer and filtered through a 0.2 μm membrane (Pall Corporation, Port Washington, N.Y.). For each concentration sample, the aptamer was captured onto the sample flow cell (FC2) for 40 s at a flow rate of 5 μL/min, the folinic acid solution was injected over both flow cells at a flow rate of 30 μL/min to monitor target association, and selection buffer was injected over both flow cells at a flow rate of 30 μL/min to monitor target dissociation. Association and dissociation phase lengths used were chosen based on time needed to reach equilibrium. Aptamer and folinic acid were removed from the sensor surface by injecting 25 mM NaOH for 30 s at a flow rate of 30 μL/min over both flow cells.
(§4) Data processing and analysis were performed using Biacore X100 Evaluation Software version 2.0 (GE Healthcare). A double-referencing method was performed to process all datasets. Data from the sample flow cell (FC2) were referenced first by subtracting data from the reference flow cell (FC1) to correct for bulk refractive index changes, nonspecific binding, injection noise, matrix effects, and baseline drift. Reference-subtracted data (FC2−FC1) were double-referenced with a blank injection of running buffer to account for any systematic drift over the course of the injection. Double-referenced data were fit to a 1:1 binding model for kinetic analysis or steady-state affinity model for thermodynamic analysis. […]

[3] = Surface plasmon resonance aptamer binding assay, (6S)-folinic acid; settings: SPR, 25° C., selection buffer pH 7.4, 5 mM MgCl2; for ka, (6S)-Folinic Acid / kd, (6S)-Folinic Acid: 1:1 binding model
Experimental: as §1, §2, §3, §4

[4] = SPR binding to (6R,S)-5-methyl-5,6,7,8-tetrahydrofolic acid; settings: ligand is mixture of (6R) and (6S) diastereomers; for Kd: read-out: KD, (6R,S)-5-methyl-THF
[5] = SPR binding to (6R,S)-5-formyl-5,6,7,8-tetrahydropteroic acid; settings: ligand is mixture of (6R) and (6S) diastereomers; for Kd: read-out: KD, (6R,S)-5-formyl-THPteroic Acid
[6] = test system: GFP expression; assay: Gene-regulatory activity of ribozyme-based switches in yeast (GFP, flow cytometry); format: cell-based, Saccharomyces cerevisiae; settings: normalized to sTRSV Contl
Experimental: Plasmid and strain construction. Standard molecular biology cloning techniques were used to construct all plasmids. DNA synthesis was performed by Integrated DNA Technologies (Coralville, Iowa) or the Protein and Nucleic Acid Facility (Stanford, Calif.). All enzymes, including restriction enzymes and ligases, were obtained through New England Biolabs (Ipswich, Mass.). Ligation products were electroporated with a GenePulser XCell (Bio-Rad, Hercules, Calif.) into an E. coli DH10B strain (Invitrogen, Carlsbad, Calif.), where cells harboring cloned plasmids were maintained in Luria-Bertani media containing 50 μg/mL ampicillin (EMD Chemicals, Philadelphia, Pa.). […]
The two-color screening plasmid pCS1748; single-color plasmids harboring GFP (pCS1585) and mCherry (pCS1749) for use as compensation controls; and no-color plasmid pCS4, containing no fluorescence reporter gene, was used as the negative-control construct. […]
Cell sorting screen for functional ligand-responsive RNA switches. […] Transformation efficiencies were determined by plating serial dilutions of the transformants, and transformed cells were propagated in SC-URA media for FACS.
Two-color FACS-based screen. […] GFP was excited at 488 nm and measured with a splitter of 505 nm and bandpass filter of 525/50 nm. mCherry was excited at 532 nm and measured with a splitter of 600 nm and a bandpass filter of 610/20 nm. […]

Molecule	plasma concentration compared to the (6S) diastereomer ([1]; in vivo)	plasma half-life compared to the (6S) diastereomer ([1]; in vivo)	concentration that can accumulate in human blood plasma [1]	ka, (6R)-Folinic Acid [2]	kd, (6R)-Folinic Acid [2]	Kd [2]	Selectivity [2]	ka, (6S)-Folinic Acid [3]	kd, (6S)-Folinic Acid [3]	Kd [3]	ka, (6R,S)-5-methyl-THF [4]	kd, (6R,S)-5-methyl-THF [4]	Kd [4]	ka, (6R,S)-5-formyl-THPteroic Acid [5]	kd, (6R,S)-5-formyl-THPteroic Acid [5]	Kd [5]	normalized GFP expression ([6]; absence of theophylline)	normalized GFP expression ([6]; presence of 5 mM theophylline)
Nc1nc2c(c(=O)[nH]1)N(C=O)[C@H](CNc1ccc(C(=O)N[C@@H](CCC(=O)O)C(=O)O)cc1)CN2 [(6R)-folinic acid]	≤ 18 fold	up to 15 fold	up to 77.6 μM															
Nc1nc(=O)c2c([nH]1)NC[C@H](CNc1ccc(C(=O)N[C@@H](CCC(=O)O)C(=O)O)cc1)N2C=O [(6S)-folinic acid]			≤ 7.95 µM															
tFA6-8: truncated (6R)-FA specific RNA aptamer, SEQ ID NO: 21 (UUCCCGUCAGGUACGUUAUAUUCGGGGGA; unmodified RNA)				77900 M⁻¹ s⁻¹	0.0176 s⁻¹	0.225 µM	567	2330 M⁻¹ s⁻¹	0.297 s⁻¹	128 µM								
tFA8-4: truncated (6R)-FA specific RNA aptamer, SEQ ID NO: 18 (GCUUGGCGUUGCGUGGUACGUUAUAUUCCGGCCAAGC; unmodified RNA)				269000 M⁻¹ s⁻¹	0.00515 s⁻¹	0.0192 µM	260	21100 M⁻¹ s⁻¹	0.105 s⁻¹	4.98 µM	33500 M⁻¹ s⁻¹	0.211 s⁻¹	6.29 µM	135000 M⁻¹ s⁻¹	0.00494 s⁻¹	0.0366 µM		
tFA8-11: truncated (6R)-FA specific RNA aptamer, SEQ ID NO: 20 (UGCAGUGCUUGGUACGUUAUAUUCAGCUGCA; unmodified RNA)				116000 M⁻¹ s⁻¹	0.00468 s⁻¹	0.0405 µM	855	6560 M⁻¹ s⁻¹	0.227 s⁻¹	34.6 µM	14300 M⁻¹ s⁻¹	0.195 s⁻¹	13.6 µM	750000 M⁻¹ s⁻¹	0.00568 s⁻¹	0.0757 µM		
tFA8-16: truncated (6R)-FA specific RNA aptamer, SEQ ID NO: 22 (CUCCUUCCGGUGACCUGGACGUUAUUUCCGGCCGAAGGGAG; unmodified RNA)				33000 M⁻¹ s⁻¹	0.0602 s⁻¹	1.82 µM	684	682 M⁻¹ s⁻¹	0.85 s⁻¹	1250 µM								
tFA10-7: truncated (6S)-FA specific RNA aptamer, SEQ ID NO: 24 (ACGGCGAAGAGUCAAAGCAUCCCCUGCGAAAGCAGGGCCCGU; unmodified RNA)						74.4 µM	515	53600 M⁻¹ s⁻¹	0.00775 s⁻¹	0.144 µM			81.8 µM	35200 M⁻¹ s⁻¹	0.00697 s⁻¹	0.198 µM		
B1																	~10.8%	~36.7%
B2				94 M⁻¹ s⁻¹	0.00355 s⁻¹	37.7 µM	600	36100 M⁻¹ s⁻¹	0.00227 s⁻¹	0.0628 µM			447 µM	53200 M⁻¹ s⁻¹	0.00633 s⁻¹	0.119 µM		
